Measured values reported in patent US9657015B2, “Substituted bicyclic dihydropyrimidinones and their use as inhibitors of neutrophil elastase activity” (Boehringer Ingelheim International GmbH, priority 2014, dated 2017).
≈ marks a conversion by molar mass, not a printed value.

What was measured:
[1] = Aqueous solubility (High Throughput Method); type: physicochemical; settings: McIlvaine buffer pH 6.8 with 2.5% DMSO, aqueous buffer, kinetic from dmso stock; McIlvaine buffer pH 6.8, 2.5% DMSO, 24 h shaking
Method: Assay for Determination of Aqueous Solubility (“High Throughput Method”)
Starting from a 10 mM DMSO stock solution, aliquots are diluted with acetonitrile/water (1/1) and McIlvaine buffer pH 6.8, respectively. After 24 h of shaking, the solutions or suspensions are filtered and analyzed by LC-UV. The amount dissolved in buffer is compared to the amount dissolved in the acetonitrile/water (1/1) solution. Solubility is measured from 0.001 to 0.125 mg/ml at a DMSO concentration of 2.5%. If more than 90% of the compound is dissolved in buffer, the value is marked with “>”.

[2] = target: neutrophil elastase in human plasma (Homo sapiens (Human), UniProt P08246); assay: Neutrophil elastase inhibitory activity in human plasma; type: biochemical; settings: human plasma assay (zymosan-stimulated blood plasma), substrate 250 μM, pH 7.5
Chain of neutrophil elastase in human plasma (P08246 30-247): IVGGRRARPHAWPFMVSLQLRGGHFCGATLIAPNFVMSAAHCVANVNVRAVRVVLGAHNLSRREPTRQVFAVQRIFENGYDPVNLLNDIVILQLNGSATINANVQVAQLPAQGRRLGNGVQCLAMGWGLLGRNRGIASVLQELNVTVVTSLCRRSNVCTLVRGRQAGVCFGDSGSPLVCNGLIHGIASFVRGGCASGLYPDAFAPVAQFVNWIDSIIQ

[3] = Metabolic stability with human liver microsomes; type: in vitro ADME; settings: pH 7.6; pooled human liver microsomes, 37° C., 1 μM test compound, 1 mg/ml microsomal protein, NADPH; read-out: t1/2 INVITRO
[4] = target: Human neutrophil elastase (Homo sapiens (Human), UniProt P08246); assay: Human Neutrophil Elastase Assay; type: biochemical; settings: substrate MeOSuc-Ala-Ala-Pro-Val-AMC 250 μM, pH 7.5, room temperature
Chain of Human neutrophil elastase (P08246 30-247): as above

[5] = Drug transport across human Caco-2 cells; type: in vitro ADME; settings: human, Caco-2 monolayers, pH 7.2, 37° C.; for Papp A→B at 10 µM: apical-to-basal, read-out: PEAB; for Papp B→A at 10 µM: basal-to-apical, read-out: PEBA
From the text: Assay for Determination of Drug Transport Across Human Caco-2 Cells
The assay provides information on the potential of a compound to pass the cell membrane, on the extent of oral absorption as well as on whether the compound is actively transported by uptake and/or efflux transporters. For the measurement of permeability across polarized, confluent human cancer colon carcinoma cells 2 (Caco-2) cell monolayers grown on permeable filter supports are used as the in vitro absorption model.
Apparent permeability coefficients (PE) of the compounds across the Caco-2 monolayers are measured (pH 7.2, 37° C.) in apical-to-basal (AB) (absorptive) and basal-to-apical (BA) (secretory) transport direction. AB permeability (PEAB) represents drug absorption from the intestine into the blood and BA permeability (PEBA) drug secretion from the blood back into the intestine via both passive permeability as well as active transport mechanisms mediated by efflux and uptake transporters that are expressed on the Caco-2 cells. The compounds are assigned to permeability/absorption classes by comparison of the AB permeabilities with the AB permeabilities of reference compounds with known in vitro permeability and oral absorption in the human. Identical or similar permeabilities in both transport directions indicate passive permeation, vectorial permeability points to additional active transport mechanisms. […] Active transport is concentration-dependently saturable.
Caco-2 cells (1-2*10^5 cells/cm^2 area) are seeded on filter inserts (Costar transwell polycarbonate or PET filters, 0.4 μm pore size) and cultured (DMEM) for 10 to 25 days. Compounds are dissolved in appropriate solvent (like DMSO, 1-20 mM stock solutions). Stock solutions are diluted with HTP-4 buffer (128.13 mM NaCl, 5.36 mM KCl, 1 mM MgSO4, 1.8 mM CaCl2, 4.17 mM NaHCO3, 1.19 mM Na2HPO4×7H2O, 0.41 mM NaH2PO4×H2O, 15 mM HEPES, 20 mM glucose, pH 7.2) to prepare the transport solutions (typically 10 μM compound, final DMSO<=0.5%). The transport solution (TL) is applied to the apical or basolateral donor side for measuring A-B or B-A permeability (3 filter replicates), respectively. The receiver side contains HTP-4 buffer supplemented with 2% BSA. Samples are collected at the start and end of experiment from the donor and at various time intervals for up to 2 hours also from the receiver side for concentration measurement by LC-MS/MS or scintillation counting. Sampled receiver volumes are replaced with fresh receiver solution.
The apparent permeability coefficients (PEAB and PEBA) of selected compounds in the Caco-2 drug transport assay described above are listed in Table 9.

| solubility at 24 h [1] [µg/mL] | IC50 [2] [nM] | half-life at 1 μM [3] [h] | IC50 [4] [nM] | Papp A→B at 10 µM [5] [×10⁻⁶ cm/s] | Papp B→A at 10 µM [5] [×10⁻⁶ cm/s] | Structure (SMILES) |
| --- | --- | --- | --- | --- | --- | --- |
| > 92 | 5.4 | > 2.17 | 3.2 | 4.7 | 31 | N#Cc1ccc([C@H]2NC(=O)N(c3cccc(C(F)F)c3)C3=C2C(=O)NCC3)cc1 [Example 2A, (R)-4-(1-(3-(Difluoromethyl)phenyl)-2,5-dioxo-1,2,3,4,5,6,7,8-octahydropyrido[4,3-d]-pyrimidin-4-yl)benzonitrile] |
| > 89 | 2.7 | > 2.17 | 1.3 | 17 | 34 | CN1CCC2=C(C1=O)[C@@H](c1ccc(C#N)cc1)NC(=O)N2c1cccc(C(F)(F)F)c1 [Example 4A, (R)-4-(6-Methyl-2,5-dioxo-1-(3-(trifluoromethyl)phenyl)-1,2,3,4,5,6,7,8-octahydropyrido[4,3-d]pyrimidin-4-yl)benzonitrile] |
| > 88 | 1 | > 2.17 | < 1 | 37 | 80 | CN1C(=O)N(c2cccc(C(F)(F)F)c2)C2=C(C(=O)NCC2)[C@H]1c1ccc(C#N)cc1 [Example 6, (R)-4-(3-Methyl-2,5-dioxo-1-(3-(trifluoromethyl)phenyl)-1,2,3,4,5,6,7,8-octahydropyrido[4,3-d]pyrimidin-4-yl)benzonitrile] |
|  | 2.6 |  | < 1 |  |  | CN(C)C(=O)CN1C(=O)N(c2cccc(C(F)(F)F)c2)C2=C(C(=O)N(C)CC2)C1c1ccc(C#N)cc1 (centres unmarked) [Example 15.1] |
|  | 2.5 |  | < 1 |  |  | CN1C(=O)N(c2cccc(C(F)(F)F)c2)C2=C(C(=O)NCC2)C1c1ccc(C#N)cc1Br (centres unmarked) [Example 22, 3-Bromo-4-{3-methyl-2,5-dioxo-1-[3-(trifluoromethyl)phenyl]-1H,2H,3H,4H,5H,6H,7H,8H-pyrido[4,3-d]pyrimidin-4-yl}benzonitrile] |
|  | < 1 |  | < 1 |  |  | N#Cc1ccc(C2NC(=O)N(c3cccc(C(F)(F)F)c3)C3=C2C(=O)NCC3)c(C(F)(F)F)c1 (centres unmarked) [Example 27, 4-{2,5-Dioxo-1-[3-(trifluoromethyl)phenyl]-1H,2H,3H,4H,5H,6H,7H,8H-pyrido-[4,3-d]pyrimidin-4-yl}-3-(trifluoromethyl)benzonitrile] |
| 93 (≈ 170 µM) | 1 | > 2.17 |  | 6 | 91 | CN1CCC2=C(C1=O)C(c1ccc(C#N)cc1-c1ccc(=O)n(C)n1)N(C)C(=O)N2c1cccc(C(F)(F)F)c1 (centres unmarked) [Example 41, 4-{3,6-Dimethyl-2,5-dioxo-1-[3-(trifluoromethyl)phenyl]-1H,2H,3H,4H,5H,6H,7H,8H-pyrido[4,3-d]pyrimidin-4-yl}-3-(1-methyl-6-oxo-1,6-dihydropyridazin-3-yl)-benzonitrile] |

Second part, the compound before the results:

| Structure (SMILES) | solubility at 24 h [1] [µg/mL] | IC50 [2] [nM] | half-life at 1 μM [3] [h] | IC50 [4] [nM] | Papp A→B at 10 µM [5] [×10⁻⁶ cm/s] | Papp B→A at 10 µM [5] [×10⁻⁶ cm/s] |
| --- | --- | --- | --- | --- | --- | --- |
| CNC(=O)CN1C(=O)N(c2cccc(C(F)(F)F)c2)C2=C(C(=O)N(C)CC2)C1c1ccc(C#N)cc1 (centres unmarked) [Example 15, 2-(4-(4-Cyanophenyl)-6-methyl-2,5-dioxo-1-(3-(trifluoromethyl)phenyl)-1,2,5,6,7,8-hexahydropyrido[4,3-d]pyrimidin-3(4H)-yl)-N-methylacetamide] |  | 7.8 |  | 3.2 |  |  |
| CNC(=O)N1C(=O)N(c2cccc(C(F)(F)F)c2)C2=C(C(=O)NCC2)C1c1ccc(C#N)cc1 (centres unmarked) [Example 16, 4-(4-Cyanophenyl)-N-methyl-2,5-dioxo-1-(3-(trifluoromethyl)phenyl)-1,2,5,6,7,8-hexahydropyrido[4,3-d]pyrimidine-3(4H)-carboxamide] |  | 2.4 |  | < 1 |  |  |
| N#Cc1ccc(C2C3=C(CCNC3=O)N(c3cccc(C(F)(F)F)c3)C(=O)N2C(=O)NCCO)cc1 (centres unmarked) [Example 17, 4-(4-Cyanophenyl)-N-(2-hydroxyethyl)-2,5-dioxo-1-[3-(trifluoromethyl)phenyl]-1H,2H,3H,4H,5H,6H,7H,8H-pyrido[4,3-d]pyrimidine-3-carboxamide] |  | < 1 |  | < 1 |  |  |
| N#Cc1ccc(C2NC(=O)N(c3cccc(C(F)(F)F)c3)C3=C2C(=O)N(C(=O)NCCO)CC3)cc1 (centres unmarked) [Example 18, 4-(4-Cyanophenyl)-N-(2-hydroxyethyl)-2,5-dioxo-1-[3-(trifluoromethyl)phenyl]-1H,2H,3H,4H,5H,6H,7H,8H-pyrido[4,3-d]pyrimidine-6-carboxamide] |  | 6.7 |  | 3.8 |  |  |
| CCNC(=O)N1CCC2=C(C1=O)C(c1ccc(C#N)cc1)NC(=O)N2c1cccc(C(F)(F)F)c1 (centres unmarked) [Example 19, 4-(4-Cyanophenyl)-N-ethyl-2,5-dioxo-1-[3-(trifluoromethyl)phenyl]-1H,2H,3H,4H,5H,6H,7H,8H-pyrido[4,3-d]pyrimidine-6-carboxamide] |  | 18 |  | 4.9 |  |  |
| N#Cc1ccc(C2NC(=O)N(c3cccc(C(F)(F)F)c3)C3=C2C(=O)N(C(=O)NCCCO)CC3)cc1 (centres unmarked) [Example 20, 4-(4-Cyanophenyl)-N-(3-hydroxypropyl)-2,5-dioxo-1-[3-(trifluoromethyl)phenyl]-1H,2H,3H,4H,5H,6H,7H,8H-pyrido[4,3-d]pyrimidine-6-carboxamide] |  | 6.9 |  | 3.7 |  |  |
| N#Cc1ccc(C2NC(=O)N(c3cccc(C(F)(F)F)c3)C3=C2C(=O)NCC3)c(Br)c1 (centres unmarked) [Example 21, 3-Bromo-4-{2,5-dioxo-1-[3-(trifluoromethyl)phenyl]-1H,2H,3H,4H,5H,6H,7H,8H-pyrido[4,3-d]pyrimidin-4-yl}benzonitrile] |  | 1.9 |  | 1.9 |  |  |
| N#Cc1ccc(C2NC(=O)N(c3cccc(C(F)(F)F)c3)C3=C2C(=O)NCC3)c(-c2cnco2)c1 (centres unmarked) [Example 23, 4-{2,5-Dioxo-1-[3-(trifluoromethyl)phenyl]-1H,2H,3H,4H,5H,6H,7H,8H-pyrido-[4,3-d]pyrimidin-4-yl}-3-(1,3-oxazol-5-yl)benzonitrile] |  | 1.1 |  | < 1 |  |  |
| Cn1cc(-c2cc(C#N)ccc2C2NC(=O)N(c3cccc(C(F)(F)F)c3)C3=C2C(=O)NCC3)cn1 (centres unmarked) [Example 24, 4-{2,5-Dioxo-1-[3-(trifluoromethyl)phenyl]-1H,2H,3H,4H,5H,6H,7H,8H-pyrido-[4,3-d]pyrimidin-4-yl}-3-(1-methyl-1H-pyrazol-4-yl)benzonitrile] |  | 1.4 |  | < 1 |  |  |
| CN1C(=O)N(c2cccc(C(F)(F)F)c2)C2=C(C(=O)NCC2)C1c1ccc(C#N)cc1C(F)(F)F (centres unmarked) [Example 28, 4-{3-Methyl-2,5-dioxo-1-[3-(trifluoromethyl)phenyl]-1H,2H,3H,4H,5H,6H,7H,8H-pyrido[4,3-d]pyrimidin-4-yl}-3-(trifluoromethyl)benzonitrile] |  | 1.1 |  | < 1 |  |  |
| CN1C(=O)N(c2cccc(C(F)(F)F)c2)C2=C(C(=O)NCC2)C1c1ccc(C#N)cc1-c1ccncc1 (centres unmarked) [Example 33, 4-{3-Methyl-2,5-dioxo-1-[3-(trifluoromethyl)phenyl]-1H,2H,3H,4H,5H,6H,7H,8H-pyrido[4,3-d]pyrimidin-4-yl}-3-(pyridin-4-yl)benzonitrile] |  | 5.3 |  | < 1 |  |  |
| CN1CCC2=C(C1=O)C(c1ccc(C#N)cc1CO)N(C)C(=O)N2c1cccc(C(F)(F)F)c1 (centres unmarked) [Example 38, 4-{3,6-Dimethyl-2,5-dioxo-1-[3-(trifluoromethyl)phenyl]-1H,2H,3H,4H,5H,6H,7H,8H-pyrido[4,3-d]pyrimidin-4-yl}-3-(hydroxymethyl)benzonitrile] | 89 (≈ 189 µM) | 1.4 |  | < 1 | 24 | 91 |
